Results on 27 molecules are retold here after patent US20240190865A1, “T-TYPE CALCIUM CHANNEL ANTAGONISTS AND USES THEREOF” (THE BOARD OF TRUSTEES OF THE LELAND STANFORD JUNIOR …, priority 2021, published 2024).

The target of one test is Cav3.2 (Homo sapiens (Human), UniProt O95180). Put plainly: In vitro patch clamp assay (SyncroPatch 384PE). It is filed as cell-based. The note with it: HEK293 cells. How it is done:
Patch clamp assays were performed at Charles River. HEK293 cells were cultured in Dulbecco's Modified Eagle Medium/Nutrient Mixture F-12 (D-MEM/F-12) supplemented with 10% fetal bovine serum, 100 U/mL penicillin G sodium, 100 μg/mL streptomycin sulfate and 500 μg/mL G418. Before testing, cells in culture dishes were washed twice with Hank's Balanced Salt Solution, treated with Accutase™ and re-suspended in the culture media (˜20×10^6 cells in 20 mL). Cells in suspension were allowed to recover for 10 minutes in tissue culture incubator set at 37° C. in a humidified 95% air: 5% CO2 atmosphere. Immediately before use in the SyncroPatch 384PE system (SP384PE), the cells were washed twice in extracellular buffer (HB-PS) to remove the culture medium and re-suspended in 20 mL of HB-PS. Extracellular buffer was loaded into the wells of Nanion 384-well Patch Clamp (NPC-384, 4×M) chip (60 μL per well). Then, cell suspension was pipetted into the wells (20 μL per well) of the chip. After establishment of the whole-cell configuration, membrane currents were recorded using patch clamp amplifier in the SP384PE system.

A further test deals with Miro1. Put plainly: Miro1 reduction after compound administration, Western blot. The format is cell-based. As to conditions: Western blot method.

Sequence of Cav3.2 (O95180 whole entry): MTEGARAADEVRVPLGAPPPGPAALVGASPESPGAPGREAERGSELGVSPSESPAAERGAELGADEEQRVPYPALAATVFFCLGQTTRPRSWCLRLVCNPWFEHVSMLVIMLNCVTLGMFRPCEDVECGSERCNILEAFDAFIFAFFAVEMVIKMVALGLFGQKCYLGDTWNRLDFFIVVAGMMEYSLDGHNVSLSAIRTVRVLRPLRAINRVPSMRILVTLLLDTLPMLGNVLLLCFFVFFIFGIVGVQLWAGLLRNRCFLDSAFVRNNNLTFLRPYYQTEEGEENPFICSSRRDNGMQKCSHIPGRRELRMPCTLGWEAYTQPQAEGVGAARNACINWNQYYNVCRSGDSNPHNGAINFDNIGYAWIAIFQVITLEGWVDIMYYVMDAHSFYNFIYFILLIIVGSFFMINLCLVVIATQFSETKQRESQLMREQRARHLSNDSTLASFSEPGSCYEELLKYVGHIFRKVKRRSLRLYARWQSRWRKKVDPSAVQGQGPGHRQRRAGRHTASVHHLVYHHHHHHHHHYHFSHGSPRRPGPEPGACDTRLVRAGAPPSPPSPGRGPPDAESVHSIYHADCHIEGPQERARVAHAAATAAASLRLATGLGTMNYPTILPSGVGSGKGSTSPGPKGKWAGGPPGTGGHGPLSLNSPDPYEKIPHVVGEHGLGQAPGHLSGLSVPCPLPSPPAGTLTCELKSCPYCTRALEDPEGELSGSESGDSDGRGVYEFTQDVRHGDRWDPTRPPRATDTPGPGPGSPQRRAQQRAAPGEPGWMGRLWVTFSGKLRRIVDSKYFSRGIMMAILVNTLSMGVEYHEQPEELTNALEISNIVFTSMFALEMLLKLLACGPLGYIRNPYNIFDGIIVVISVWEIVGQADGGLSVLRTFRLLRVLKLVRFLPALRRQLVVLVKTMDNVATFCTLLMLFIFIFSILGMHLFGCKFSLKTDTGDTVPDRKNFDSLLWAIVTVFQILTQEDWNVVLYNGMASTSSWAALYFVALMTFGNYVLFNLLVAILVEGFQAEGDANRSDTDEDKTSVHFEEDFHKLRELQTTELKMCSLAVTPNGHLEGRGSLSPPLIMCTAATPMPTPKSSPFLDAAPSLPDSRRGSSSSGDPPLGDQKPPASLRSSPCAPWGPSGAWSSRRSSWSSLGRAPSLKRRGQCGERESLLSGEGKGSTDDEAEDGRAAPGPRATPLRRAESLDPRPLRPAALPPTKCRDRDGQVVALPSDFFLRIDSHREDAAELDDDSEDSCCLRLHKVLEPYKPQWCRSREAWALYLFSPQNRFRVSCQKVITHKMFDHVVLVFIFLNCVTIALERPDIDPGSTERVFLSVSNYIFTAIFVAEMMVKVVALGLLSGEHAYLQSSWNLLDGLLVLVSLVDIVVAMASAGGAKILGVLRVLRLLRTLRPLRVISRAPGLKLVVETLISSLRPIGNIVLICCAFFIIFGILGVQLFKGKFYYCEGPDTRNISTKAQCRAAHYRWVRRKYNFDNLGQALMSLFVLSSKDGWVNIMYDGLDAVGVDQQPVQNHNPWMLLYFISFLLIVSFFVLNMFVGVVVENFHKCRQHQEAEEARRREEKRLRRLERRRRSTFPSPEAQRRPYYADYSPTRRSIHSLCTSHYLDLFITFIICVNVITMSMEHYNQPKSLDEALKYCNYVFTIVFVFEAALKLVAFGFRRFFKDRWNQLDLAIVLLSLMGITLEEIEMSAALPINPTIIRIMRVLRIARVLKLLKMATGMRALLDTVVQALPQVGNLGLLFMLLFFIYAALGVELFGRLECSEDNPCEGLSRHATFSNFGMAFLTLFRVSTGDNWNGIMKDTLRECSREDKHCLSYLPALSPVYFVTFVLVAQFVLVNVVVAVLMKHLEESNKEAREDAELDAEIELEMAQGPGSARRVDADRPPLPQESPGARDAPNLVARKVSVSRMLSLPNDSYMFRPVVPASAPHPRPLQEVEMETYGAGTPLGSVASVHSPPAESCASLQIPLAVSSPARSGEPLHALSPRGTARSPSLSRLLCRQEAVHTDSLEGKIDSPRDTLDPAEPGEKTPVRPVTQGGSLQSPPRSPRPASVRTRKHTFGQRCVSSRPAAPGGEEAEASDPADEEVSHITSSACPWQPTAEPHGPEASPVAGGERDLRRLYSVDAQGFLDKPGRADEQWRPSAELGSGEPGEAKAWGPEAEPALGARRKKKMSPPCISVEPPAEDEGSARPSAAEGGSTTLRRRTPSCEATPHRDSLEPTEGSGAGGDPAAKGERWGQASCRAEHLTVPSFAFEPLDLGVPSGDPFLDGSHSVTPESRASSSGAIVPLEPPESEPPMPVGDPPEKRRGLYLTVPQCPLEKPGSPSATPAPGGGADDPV

At Cav3.2, `C[C@@H](NC(=O)Cc1ccc(C2CC2)cn1)c1cc2cnn(CC(F)(F)F)c2cn1` [Example 34, (R)-2-(5-cyclopropylpyridin-2-yl)-N-(1-(1-(2,2,2-trifluoroethyl)-1H-pyrazolo[3,4-c]pyridin-5-yl)ethyl)acetamide] showed a half-maximal inhibitory concentration (IC50) of more than 10 µM.
Same read-out and setting: then `C[C@@H](NC(=O)Cc1cnc(C(C)(F)F)c(Cl)c1)c1cc2cnn(CC(F)(F)F)c2cn1` [Example 35, (R)-2-(5-chloro-6-(1,1-difluoroethyl)pyridin-3-yl)-N-(1-(1-(2,2,2-trifluoroethyl)-1H-pyrazolo[3,4-c]pyridin-5-yl)ethyl)acetamide], with 2.13 µM; and `C[C@@H](NC(=O)Cc1cnc(C2CC2)c(Cl)c1)c1cc2cnn(CC(F)(F)F)c2cn1` [Example 36, (R)-2-(5-chloro-6-cyclopropylpyridin-3-yl)-N-(1-(1-(2,2,2-trifluoroethyl)-1H-pyrazolo[3,4-c]pyridin-5-yl)ethyl)acetamide], with 0.873 µM.
For `C[C@@H](NC(=O)Cc1ccc(C(C)(F)F)c(Cl)c1)c1cc2cnn(CC(F)(F)F)c2cn1` [Example 37, (R)-2-(3-chloro-4-(1,1-difluoroethyl)phenyl)-N-(1-(1-(2,2,2-trifluoroethyl)-1H-pyrazolo[3,4-c]pyridin-5-yl)ethyl)acetamide], 0.084 µM corresponded to half-maximal inhibition against Cav3.2 (IC50).
At Cav3.2, `C[C@@H](NC(=O)Cc1ccc(C(C)(F)F)c(F)c1)c1cc2cnn(CC(F)(F)F)c2cn1` [Example 38, (R)-2-(4-(1,1-difluoroethyl)-3-fluorophenyl)-N-(1-(1-(2,2,2-trifluoroethyl)-1H-pyrazolo[3,4-c]pyridin-5-yl)ethyl)acetamide] had a concentration for half-maximal inhibition (IC50) of 0.123 µM.
`C[C@@H](NC(=O)Cc1cnc(C2CC2)c(F)c1)c1cc2cnn(CC(F)(F)F)c2cn1` [Example 39, (R)-2-(6-cyclopropyl-5-fluoropyridin-3-yl)-N-(1-(1-(2,2,2-trifluoroethyl)-1H-pyrazolo[3,4-c]pyridin-5-yl)ethyl)acetamide]: the midpoint of inhibition at Cav3.2, the IC50, lay at 0.519 µM.
Still for that read-out and setting: then `C[C@@H](NC(=O)Cc1ccc(C(F)(F)F)cc1)c1cc2cnn(CC(C)(F)F)c2cn1` [Example 40, (R)—N-(1-(1-(2,2-difluoropropyl)-1H-pyrazolo[3,4-c]Pyridin-5-yl)ethyl)-2-(4-(trifluoromethyl)phenyl)acetamide], with 0.827 µM; and `C[C@@H](NC(=O)Cc1ccc(C(C)(F)F)cc1)c1cc2cnn(CC(C)(F)F)c2cn1` [Example 41, (R)-2-(4-(1,1-difluoroethyl)phenyl)-N-(1-(1-(2,2-difluoropropyl)-1H-pyrazolo[3,4-c]pyridin-5-yl)ethyl)acetamide], with 0.727 µM; and `C[C@@H](NC(=O)Cc1ccc(C(F)(F)F)c(F)c1)c1cc2cnn(CC(F)(F)F)c2cn1` [Example 42, (R)-2-(3-fluoro-4-(trifluoromethyl)phenyl)-N-(1-(1-(2,2,2-trifluoroethyl)-1H-pyrazolo[3,4-c]pyridin-5-yl)ethyl)acetamide], with 0.394 µM.
Same read-out and setting: then `C[C@@H](NC(=O)Cc1ccc(C(F)(F)F)c(Cl)c1)c1cc2cnn(CC(F)(F)F)c2cn1` [Example 43, (R)-2-(3-chloro-4-(trifluoromethyl)phenyl)-N-(1-(1-(2,2,2-trifluoroethyl)-1H-pyrazolo[3,4-c]pyridin-5-yl)ethyl)acetamide], with 0.214 µM; and `C[C@@H](NC(=O)Cc1ccc(C2(C(F)(F)F)CC2)cc1)c1cc2cnn(CC(F)(F)F)c2cn1` [Example 44, (R)—N-(1-(1-(2,2,2-trifluoroethyl)-1H-pyrazolo[3,4-c]pyridin-5-yl)ethyl)-2-(4-(1-(trifluoromethyl)cyclopropyl)phenyl)acetamide], with 0.071 µM; and `CC[C@@H](NC(=O)Cc1ccc(C(F)(F)F)cc1)c1cc2cnn(CC(F)(F)F)c2cn1` [Example 45, (R)—N-(1-(1-(2,2,2-trifluoroethyl)-1H-pyrazolo[3,4-c]pyridin-5-yl)propyl)-2-(4-(trifluoromethyl)phenyl)acetamide], with 0.113 µM.
The molecule `Cc1c2ccc(CC(=O)N[C@H](C)c3cc4cnn(CC(F)(F)F)c4cn3)cc2nn1C` [Example 46, (R)-2-(2,3-dimethyl-2H-indazol-6-yl)-N-(1-(1-(2,2,2-trifluoroethyl)-1H-pyrazolo[3,4-c]pyridin-5-yl)ethyl)acetamide] showed an IC50 on Cav3.2 of 0.806 µM.
In turn, `C[C@@H](NC(=O)Cc1ccc(C2(C#N)CC2)cc1)c1cc2cnn(CC(F)(F)F)c2cn1` [Example 47, (R)-2-(4-(1-cyanocyclopropyl)phenyl)-N-(1-(1-(2,2,2-trifluoroethyl)-1H-pyrazolo[3,4-c]pyridin-5-yl)ethyl)acetamide] had an IC50 against Cav3.2 of 0.22 µM.
For the molecule `C[C@@H](NC(=O)Cc1ccc2c(c1)OC(F)(F)O2)c1cc2cnn(CC(F)(F)F)c2cn1` [Example 48, (R)-2-(2,2-difluorobenzo[d][1,3]dioxol-5-yl)-N-(1-(1-(2,2,2-trifluoroethyl)-1H-pyrazolo[3,4-c]pyridin-5-yl)ethyl)acetamide], at Cav3.2, half-maximal inhibition (IC50) was put at 0.26 µM.
The same measure, in the same setting: then `Cc1nn(C)c2ccc(CC(=O)N[C@H](C)c3cc4cnn(CC(F)(F)F)c4cn3)cc12` [Example 49, (R)-2-(1,3-dimethyl-1H-indazol-5-yl)-N-(1-(1-(2,2,2-trifluoroethyl)-1H-pyrazolo[3,4-c]pyridin-5-yl)ethyl)acetamide], with 0.352 µM; and `C[C@@H](NC(=O)Cc1ccc2c(c1)c(C#N)cn2C)c1cc2cnn(CC(F)(F)F)c2cn1` [Example 50, (R)-2-(3-cyano-1-methyl-1H-indol-5-yl)-N-(1-(1-(2,2,2-trifluoroethyl)-1H-pyrazolo[3,4-c]pyridin-5-yl)ethyl)acetamide], with 0.85 µM; and `C[C@@H](NC(=O)Cc1ccc(C(F)(F)F)cc1)c1cc2ccn(CC(F)(F)F)c2cn1` [Example 51, (R)—N-(1-(1-(2,2,2-trifluoroethyl)-1H-pyrrolo[2,3-c]pyridin-5-yl)ethyl)-2-(4-(trifluoromethyl)phenyl)acetamide], with 0.411 µM.
On the same count and under the same terms, then `C[C@@H](NC(=O)Cc1ccc(C(C)(F)F)c(C#N)c1)c1cc2cnn(CC(F)(F)F)c2cn1` [Example 52, (R)-2-(3-cyano-4-(1,1-difluoroethyl)phenyl)-N-(1-(1-(2,2,2-trifluoroethyl)-1H-pyrazolo[3,4-c]pyridin-5-yl)ethyl)acetamide], with 0.389 µM; and `Cc1nc2cc(CC(=O)N[C@H](C)c3cc4cnn(CC(F)(F)F)c4cn3)ccc2n1C` [Example 53, (R)-2-(1,2-dimethyl-1H-benzo[d]imidazol-5-yl)-N-(1-(1-(2,2,2-trifluoroethyl)-1H-pyrazolo[3,4-c]pyridin-5-yl)ethyl)acetamide], with 0.919 µM.
Same read-out and setting: then `Cc1c(C#N)c2cc(CC(=O)N[C@H](C)c3cc4cnn(CC(F)(F)F)c4cn3)ccc2n1C` [Example 54, (R)-2-(3-cyano-1,2-dimethyl-1H-indol-5-yl)-N-(1-(1-(2,2,2-trifluoroethyl)-1H-pyrazolo[3,4-c]pyridin-5-yl)ethyl)acetamide], with 0.529 µM; and `[2H][C@](C)(NC(=O)Cc1ccc(C(F)(F)F)cc1)c1cc2cnn(CC(F)(F)F)c2cn1` [Example 55, (R)—N-(1-(1-(2,2,2-trifluoroethyl)-1H-pyrazolo[3,4-c]pyridin-5-yl)ethyl-1-d)-2-(4-(trifluoromethyl)phenyl)acetamide], with 0.335 µM.
Regarding `CC(C)c1ccc(CC(=O)N[C@H](C)c2ccc(OCC(F)(F)F)cn2)cc1` [Example 56, 2-(4-isopropylphenyl)-N-[(1R)-1-(5-(2,2,2-trifluoroethoxy)pyridin-2-yl)ethyl]acetamide], the midpoint of inhibition against Cav3.2, the IC50, lay at 0.037 µM.
Same read-out and setting: then `CC(C)c1ccc(CC(=O)N[C@H](C)c2cc3c(cn2)OC(F)(F)O3)cc1` [Example 57, (R)—N-(1-(2,2-difluoro-[1,3]dioxolo[4,5-c]pyridin-6-yl)ethyl)-2-(4-isopropylphenyl)acetamide], with 0.868 µM; and `C[C@@H](NC(=O)Cc1ccc(C2(C(F)(F)F)CC2)nc1)c1ncc(Cl)s1` [Example 58, (R)—N-(1-(5-chlorothiazol-2-yl)ethyl)-2-(6-(1-(trifluoromethyl)cyclopropyl)pyridin-3-yl)acetamide], with 4.9 µM; and `C[C@@H](NC(=O)Cc1ccc(C2(C(F)(F)F)CC2)nc1)c1ccc(OCC(F)(F)F)cn1` [Example 59, (R)—N-(1-(5-(2,2,2-trifluoroethoxy)pyridin-2-yl)ethyl)-2-(6-(1-(trifluoromethyl)cyclopropyl)pyridin-3-yl)acetamide], with 0.097 µM.
`NS(=O)(=O)Cc1noc2ccccc12` [Zonisamide, 1,2-benzisoxazole-3-methanesulfonamide]: in the test with Miro1, the “Miro1 Lowering” value was “YES”.
